Experimental data reported in patent US12104178B2, “DHFR tunable protein regulation” (Obsidian Therapeutics, Inc., priority 2017, dated 2024).

Tests used:
human donor T cells [1] = experiment: Shield-1 concentration and time dependent IL12 p40 in human T cells (Tables 94-96); format: cell-based; parameters: IL12 levels in T cells (IL12 p40, MSD): unit not given beside the values; conditions: for EC50: IL12 p40 from OT-IL12-026 T cells; for IL12 levels in T cells (IL12 p40, MSD): OT-IL12-026 T cells, 24 hours
Protocol: On day 1, cells were transduced with lentivirus for construct OT-IL12-026 at MOIs of 40, 13.3 or 4.4. […] Cells were then plated at 100,000 per well on U-bottom 96-well plate. On day 14, cells were treated for 24 hours with varying concentrations of Shield-1 or vehicle control. On day 15, the supernatant was harvested and IL12 p40 levels were measured by MSD assay. In the Table 94, MOI stands for multiplicity of infection.
A time course experiment was also performed using Shield-1 at a dose of 1 μM. T cells transduced with OT-IL12-020, OT-IL12-026 or empty vector were treated with Shield-1 or vehicle control for 4, 8, 16 and 24 hours. IL12 p40 levels were measured using MSD assay. The stabilization ratio was measured as the ratio of expression of IL12 in the presence of the stimulus to the expression in the absence of the stimulus.

HCT-116 = experiment: DD regulated IL2, IL2 ELISA with Shield-1 dose; format: cell-based, human; conditions: read-out: EC50 of Shield-1, IL2 ELISA (FIG. 58); HCT-116 transduced with OT-IL2-001
Source text: OT-IL2-001 (FKBP) was transduced into human colorectal carcinoma line, HCT-116.

human donor T cells [2] = experiment: Shield-1 concentration and time dependent IL12 p40 in human T cells (Tables 94-96); format: cell-based; conditions: 24 h

SMILES: CC[C@H](C(=O)N1CCCC[C@H]1C(=O)O[C@H](CCc1ccc(OC)c(OC)c1)c1cccc(OCCN2CCOCC2)c1)c1cc(OC)c(OC)c(OC)c1 [Shield-1]
- EC50 (human donor T cells [1]; MOI 4.4): 84 nM
- EC50 (human donor T cells [1]; MOI 13.3): 94 nM
- EC50 (human donor T cells [1]; MOI 40): 130 nM
- IL12 levels in T cells (IL12 p40, MSD) (human donor T cells [1]; MOI = 4.4, Shield-1 0.1 nM): 49.44
- IL12 levels in T cells (IL12 p40, MSD) (human donor T cells [1]; MOI = 4.4, Shield-1 1 nM): 50.44
- IL12 levels in T cells (IL12 p40, MSD) (human donor T cells [1]; MOI = 4.4, Shield-1 5 nM): 50.44
- IL12 levels in T cells (IL12 p40, MSD) (human donor T cells [1]; MOI = 4.4, Shield-1 10 nM): 178.18
- IL12 levels in T cells (IL12 p40, MSD) (human donor T cells [1]; MOI = 4.4, Shield-1 50 nM): 357.11
- IL12 levels in T cells (IL12 p40, MSD) (human donor T cells [1]; MOI = 4.4, Shield-1 100 nM): 710.56
- IL12 levels in T cells (IL12 p40, MSD) (human donor T cells [1]; MOI = 4.4, Shield-1 500 nM): 1284.95
- IL12 levels in T cells (IL12 p40, MSD) (human donor T cells [1]; MOI = 4.4, Shield-1 1000 nM): 1152.28
- IL12 levels in T cells (IL12 p40, MSD) (human donor T cells [1]; MOI = 4.4, Shield-1 2000 nM): 1071.54
- IL12 levels in T cells (IL12 p40, MSD) (human donor T cells [1]; MOI = 13.3, Shield-1 0.1 nM): 48.10
- IL12 levels in T cells (IL12 p40, MSD) (human donor T cells [1]; MOI = 13.3, Shield-1 1 nM): 48.61
- IL12 levels in T cells (IL12 p40, MSD) (human donor T cells [1]; MOI = 13.3, Shield-1 5 nM): 49.54
- IL12 levels in T cells (IL12 p40, MSD) (human donor T cells [1]; MOI = 13.3, Shield-1 10 nM): 220.08
- IL12 levels in T cells (IL12 p40, MSD) (human donor T cells [1]; MOI = 13.3, Shield-1 50 nM): 420.72
- IL12 levels in T cells (IL12 p40, MSD) (human donor T cells [1]; MOI = 13.3, Shield-1 100 nM): 972.56
- IL12 levels in T cells (IL12 p40, MSD) (human donor T cells [1]; MOI = 13.3, Shield-1 500 nM): 1307.70
- IL12 levels in T cells (IL12 p40, MSD) (human donor T cells [1]; MOI = 13.3, Shield-1 1000 nM): 1559.43
- IL12 levels in T cells (IL12 p40, MSD) (human donor T cells [1]; MOI = 13.3, Shield-1 2000 nM): 1577.99
- IL12 levels in T cells (IL12 p40, MSD) (human donor T cells [1]; MOI = 40, Shield-1 0.1 nM): 88.30
- IL12 levels in T cells (IL12 p40, MSD) (human donor T cells [1]; MOI = 40, Shield-1 1 nM): 80.07
- IL12 levels in T cells (IL12 p40, MSD) (human donor T cells [1]; MOI = 40, Shield-1 5 nM): 88.83
- IL12 levels in T cells (IL12 p40, MSD) (human donor T cells [1]; MOI = 40, Shield-1 10 nM): 374.90
- IL12 levels in T cells (IL12 p40, MSD) (human donor T cells [1]; MOI = 40, Shield-1 50 nM): 608.85
- IL12 levels in T cells (IL12 p40, MSD) (human donor T cells [1]; MOI = 40, Shield-1 100 nM): 1293.01
- IL12 levels in T cells (IL12 p40, MSD) (human donor T cells [1]; MOI = 40, Shield-1 500 nM): 1861.36
- IL12 levels in T cells (IL12 p40, MSD) (human donor T cells [1]; MOI = 40, Shield-1 1000 nM): 2346.15
- IL12 levels in T cells (IL12 p40, MSD) (human donor T cells [1]; MOI = 40, Shield-1 2000 nM): 2330.88
- EC50 (HCT-116): 50 nM
- Shield-1 concentration at which viability was reduced (human donor T cells [2]): greater than 5 μM
